Publication PMC5949348, “The Metabolism of Separase Inhibitor Sepin-1 in Human, Mouse, and Rat Liver Microsomes” (Frontiers in Pharmacology, 2018)
Values joined by “and” are separate entries in the source; they are usually repeats but may differ in a detail not shown here. Equal entries are not always repeated. Where two headings read alike, the source gives them in different places.

How the values were obtained:
[1] = biological target: T1, CYP2D6 (Homo sapiens, UniProt P10635); assay: Inhibition of sepin-1 on CYP2D6; type: in vitro ADME
T1 construct: purchased XenoTech
T1 sequence (P10635 whole entry): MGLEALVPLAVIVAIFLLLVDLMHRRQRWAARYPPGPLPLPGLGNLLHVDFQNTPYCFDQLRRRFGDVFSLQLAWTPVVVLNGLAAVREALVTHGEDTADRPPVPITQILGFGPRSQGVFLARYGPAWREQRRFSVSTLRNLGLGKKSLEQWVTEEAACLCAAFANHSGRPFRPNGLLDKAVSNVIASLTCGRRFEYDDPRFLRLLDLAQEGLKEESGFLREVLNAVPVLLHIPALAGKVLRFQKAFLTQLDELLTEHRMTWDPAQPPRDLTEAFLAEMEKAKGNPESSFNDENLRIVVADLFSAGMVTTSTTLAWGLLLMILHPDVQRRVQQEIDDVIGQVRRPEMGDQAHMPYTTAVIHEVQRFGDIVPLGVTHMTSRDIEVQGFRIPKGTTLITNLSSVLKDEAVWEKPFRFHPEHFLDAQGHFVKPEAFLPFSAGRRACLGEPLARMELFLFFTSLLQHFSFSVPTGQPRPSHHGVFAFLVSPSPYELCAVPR
Method: (§1) Incubations were performed in 1× PBS (pH 7.4), containing 0, 0.156, 0.312, 0.625, 1.25, 2.5, 5, 10, 20, or 40 μM sepin-1, 2 pmol of each cDNA-expressed P450 enzymes, and corresponding substrates: CYP1A2 (phenacetin, 40 μM, 20 min incubation), 2B6 (efavirenz, 20 μM, 30 min), 2C8 (paclitaxel, 10 μM, 30 min), 2C9 (diclofenac, 5 μM, 15 min), 2C19 [(S)-mephenytoin, 40 μM, 20 min], 2D6 (dextromethorphan, 5 μM, 15 min), and CYP3A4 (midazolam, 3 μM, 10 min) in a final volume of 190 μl. After 5 min of pre-incubation at 37°C, the reaction was initiated by adding 10 μl of 20 mM NADPH (final concentration 1.0 mM) and continued for a specific time as presented above with gentle shaking. Incubations without sepin-1 were used as controls. Reactions were terminated by the addition of 200 μl of ice-cold methanol, vortexing for 30 s, and centrifuging at 15,000 × g for 15 min. Each supernatant was transferred to an auto sampler vial and 5.0 μl was injected on to UHPLC coupled with a QQQMS system for the specific metabolite analysis. A MRM method was used. Incubations were conducted in duplicate. Positive controls were performed by using a known specific inhibitor for each of the isoform assays (Supplementary Table S1). […]

[2] = test system: breast cancer xenografts; set-up: method as in Zhang et al., 2014; details: mice; ref Zhang et al., 2014; cited from earlier work
[3] = biological target: T2, CYP1A2 (Homo sapiens, UniProt P05177); assay: Inhibition of sepin-1 on CYP1A2; type: in vitro ADME
T2 construct: purchased XenoTech
T2 sequence (P05177 1-516): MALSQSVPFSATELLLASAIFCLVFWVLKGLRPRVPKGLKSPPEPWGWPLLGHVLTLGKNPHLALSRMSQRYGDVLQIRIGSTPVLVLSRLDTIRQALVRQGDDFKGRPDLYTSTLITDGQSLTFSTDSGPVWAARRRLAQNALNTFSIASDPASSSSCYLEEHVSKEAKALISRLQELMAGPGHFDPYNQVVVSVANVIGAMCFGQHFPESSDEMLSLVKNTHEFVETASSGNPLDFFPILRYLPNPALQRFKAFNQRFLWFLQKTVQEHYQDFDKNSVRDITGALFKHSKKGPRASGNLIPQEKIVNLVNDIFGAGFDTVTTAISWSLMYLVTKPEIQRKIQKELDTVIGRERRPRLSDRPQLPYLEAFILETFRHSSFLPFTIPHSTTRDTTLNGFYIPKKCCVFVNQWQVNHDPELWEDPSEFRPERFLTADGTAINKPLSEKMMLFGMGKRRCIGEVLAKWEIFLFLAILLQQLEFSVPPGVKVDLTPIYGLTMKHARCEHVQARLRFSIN
Method: as §1

[4] = biological target: T3, CYP2C9 (Homo sapiens, UniProt P11712); assay: Inhibition of sepin-1 on CYP2C9; type: in vitro ADME
T3 construct: purchased XenoTech
T3 sequence (P11712 whole entry): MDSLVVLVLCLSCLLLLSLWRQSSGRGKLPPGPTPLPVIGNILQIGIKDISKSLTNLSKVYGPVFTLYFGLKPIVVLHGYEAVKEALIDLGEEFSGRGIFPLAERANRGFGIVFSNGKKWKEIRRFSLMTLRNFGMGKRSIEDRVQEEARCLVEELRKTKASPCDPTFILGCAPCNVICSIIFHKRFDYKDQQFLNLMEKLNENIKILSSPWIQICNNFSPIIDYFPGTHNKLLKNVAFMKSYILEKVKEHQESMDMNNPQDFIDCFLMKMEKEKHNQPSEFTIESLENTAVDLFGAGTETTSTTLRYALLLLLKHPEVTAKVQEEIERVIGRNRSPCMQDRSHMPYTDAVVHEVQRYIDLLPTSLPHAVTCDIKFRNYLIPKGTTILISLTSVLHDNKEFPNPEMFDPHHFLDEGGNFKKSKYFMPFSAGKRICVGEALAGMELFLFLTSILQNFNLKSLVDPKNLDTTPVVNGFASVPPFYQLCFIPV
Method: as §1

[5] = biological target: T4, CYP2C8 (Homo sapiens, UniProt P10632); assay: Inhibition of sepin-1 on CYP2C8; type: in vitro ADME
T4 construct: purchased XenoTech
T4 sequence (P10632 1-490): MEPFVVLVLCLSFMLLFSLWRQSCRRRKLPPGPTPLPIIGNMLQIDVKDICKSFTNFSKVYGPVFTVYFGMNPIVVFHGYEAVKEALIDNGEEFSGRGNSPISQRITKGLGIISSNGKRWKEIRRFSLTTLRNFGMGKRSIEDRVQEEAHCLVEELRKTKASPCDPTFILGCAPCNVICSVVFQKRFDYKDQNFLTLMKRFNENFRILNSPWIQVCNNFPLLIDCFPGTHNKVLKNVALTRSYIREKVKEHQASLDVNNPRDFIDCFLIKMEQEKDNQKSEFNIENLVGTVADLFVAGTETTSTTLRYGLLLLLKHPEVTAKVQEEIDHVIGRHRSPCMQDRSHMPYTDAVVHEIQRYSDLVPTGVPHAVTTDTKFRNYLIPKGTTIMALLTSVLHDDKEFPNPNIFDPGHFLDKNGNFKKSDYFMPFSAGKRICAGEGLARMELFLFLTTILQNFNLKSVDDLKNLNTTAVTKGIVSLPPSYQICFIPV
Method: as §1

[6] = biological target: T5, CYP2B6 (Homo sapiens, UniProt P20813); assay: Inhibition of sepin-1 on CYP2B6; type: in vitro ADME
T5 construct: purchased XenoTech
T5 sequence (P20813 1-491): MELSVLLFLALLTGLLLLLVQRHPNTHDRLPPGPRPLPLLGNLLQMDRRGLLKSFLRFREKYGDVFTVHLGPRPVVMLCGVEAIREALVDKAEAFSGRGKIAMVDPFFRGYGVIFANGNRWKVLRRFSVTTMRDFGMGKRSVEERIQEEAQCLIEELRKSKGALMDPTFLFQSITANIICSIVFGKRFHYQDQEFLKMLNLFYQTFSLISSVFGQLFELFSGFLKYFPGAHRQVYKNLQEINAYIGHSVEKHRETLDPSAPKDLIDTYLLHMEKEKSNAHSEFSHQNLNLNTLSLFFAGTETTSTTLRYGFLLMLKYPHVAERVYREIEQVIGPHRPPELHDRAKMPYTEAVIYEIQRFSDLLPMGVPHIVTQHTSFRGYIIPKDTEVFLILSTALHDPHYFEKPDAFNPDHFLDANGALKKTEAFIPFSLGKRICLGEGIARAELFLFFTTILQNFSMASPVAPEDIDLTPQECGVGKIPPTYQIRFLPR
Method: as §1

Question: With `CC1(C)[N+]([O-])=c2ccc([N+](=O)[O-])cc2=[N+]1[O-]` [Sepin-1, 2,2-dimethyl-5-nitro-2H-benzimidazole-1,3-dioxide] as the compound, how does the “Inhibition potency class on CYP2D6” value ([1]; FDA classification bands) read?
Answer: weak inhibition

Question: And the IC50 ([1]; substrate dextromethorphan 5 μM, 15 min, O-demethylation, co-incubation)?
Answer: > 10 µM and 42.5 µM

Question: And the “Inhibition of breast cancer xenograft growth” value [2]?
Answer: inhibits the growth of breast cancer xenografts in mice

Question: What about the IC50 ([3]; FDA classification bands, read-out: Inhibition potency class on CYP1A2) of the same compound?
Answer: 1 to 10 µM

Question: What about the IC50 ([3]; substrate phenacetin 40 μM, 20 min, metabolite acetaminophen, co-incubation, read-out: IC50 on CYP1A2) of the same compound?
Answer: < 10 µM and 8.1 µM

Question: And the “Inhibition potency class on CYP2C9” value ([4]; FDA classification bands)?
Answer: weak inhibition

Question: And the IC50 ([4]; substrate diclofenac 5 μM, 15 min, metabolite 4-O-diclofenac, co-incubation)?
Answer: > 10 µM and 21.3 µM

Question: What about the “Inhibition potency class on CYP2C8” value ([5]; FDA classification bands) of the same compound?
Answer: weak inhibition

Question: And the IC50 ([5]; substrate paclitaxel 10 μM, 30 min, metabolite 6-O-paclitaxel, co-incubation)?
Answer: > 10 µM and 17.8 µM

Question: And the “Inhibition potency class on CYP2B6” value ([6]; FDA classification bands)?
Answer: weak inhibition

Question: What about the IC50 ([6]; substrate efavirenz 20 μM, 30 min, metabolite 8-O-efavirenz, co-incubation) of the same compound?
Answer: > 10 µM and 14.5 µM
